{"source": "paper PMC11124870", "about": "“Effect of Antioxidants in Medicinal Products on Intestinal Drug Transporters” (Pharmaceutics, 2024)", "key": {"P-gp": {"biological_target": "T1, P-gp (Homo sapiens, UniProt P08183)", "T1 construct": "purchased ThermoFisher Scientific GM0015; host or cells: Sf9 membrane vesicles", "T1 sequence (P08183 whole entry)": "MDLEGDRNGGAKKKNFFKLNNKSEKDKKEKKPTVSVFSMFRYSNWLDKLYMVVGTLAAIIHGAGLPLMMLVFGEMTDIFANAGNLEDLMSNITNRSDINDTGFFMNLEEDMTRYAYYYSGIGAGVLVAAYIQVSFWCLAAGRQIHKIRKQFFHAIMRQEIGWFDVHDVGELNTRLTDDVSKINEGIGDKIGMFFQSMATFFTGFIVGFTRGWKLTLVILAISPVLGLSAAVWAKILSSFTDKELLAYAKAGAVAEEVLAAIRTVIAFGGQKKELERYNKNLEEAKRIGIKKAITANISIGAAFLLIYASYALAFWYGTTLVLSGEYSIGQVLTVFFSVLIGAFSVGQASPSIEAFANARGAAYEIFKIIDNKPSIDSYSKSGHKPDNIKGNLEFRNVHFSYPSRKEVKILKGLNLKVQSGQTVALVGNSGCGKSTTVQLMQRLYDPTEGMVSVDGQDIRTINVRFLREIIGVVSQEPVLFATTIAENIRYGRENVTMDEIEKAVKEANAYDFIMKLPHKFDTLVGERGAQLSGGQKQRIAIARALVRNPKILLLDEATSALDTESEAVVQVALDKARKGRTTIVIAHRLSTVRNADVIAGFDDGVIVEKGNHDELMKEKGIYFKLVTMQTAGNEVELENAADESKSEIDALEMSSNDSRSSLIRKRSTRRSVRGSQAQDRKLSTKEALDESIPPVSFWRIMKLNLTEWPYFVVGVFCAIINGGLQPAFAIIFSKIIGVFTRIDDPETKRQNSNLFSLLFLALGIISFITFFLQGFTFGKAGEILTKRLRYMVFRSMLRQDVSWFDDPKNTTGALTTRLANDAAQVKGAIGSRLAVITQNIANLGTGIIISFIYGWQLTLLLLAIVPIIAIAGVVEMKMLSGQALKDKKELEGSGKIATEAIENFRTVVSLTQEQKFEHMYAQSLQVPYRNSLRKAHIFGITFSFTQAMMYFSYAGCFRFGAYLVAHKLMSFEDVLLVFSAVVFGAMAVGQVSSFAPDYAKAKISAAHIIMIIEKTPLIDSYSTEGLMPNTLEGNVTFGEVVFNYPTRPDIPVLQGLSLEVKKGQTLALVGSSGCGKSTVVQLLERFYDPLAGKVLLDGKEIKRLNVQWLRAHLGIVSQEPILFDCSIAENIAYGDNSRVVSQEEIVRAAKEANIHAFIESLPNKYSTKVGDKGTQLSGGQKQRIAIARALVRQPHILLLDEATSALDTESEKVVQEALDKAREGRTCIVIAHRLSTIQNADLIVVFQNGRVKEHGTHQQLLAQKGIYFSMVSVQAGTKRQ", "test": "Vesicular transport assay, 3H-NMQ uptake in P-gp membrane vesicles", "format": "biochemical", "experimental": "The vesicular transport assay was performed using Spodoptera frugiperda 9 (Sf9) membrane vesicles overexpressing human P-gp or BCRP, as reported previously with minor modifications. In brief, Isoplate 96-well flat-bottom white plates were preincubated with HBSS containing 0.5 mg/mL BSA on an orbital shaker in a 37 °C incubator at 90 rpm for 60 min followed by washing with HBSS. The assay mixture (75 µL/well) contained a probe substrate and either vehicle control, a known inhibitor of P-gp or BCRP, or an antioxidant, in vesicle uptake buffer (50 mM MOPS-Tris, pH 7.0 + 70 mM KCl + 7.5 mM MgCl2) prewarmed to 37 °C. After addition of the assay mixture, 5 μL/well (5 μg/μL stock concentration of the vesicles) of vesicles overexpressing human P-gp or BCRP was added. Uptake assays were initiated by adding 20 μL of either 25 mM adenosine triphosphate (ATP) or 25 mM adenosine monophosphate (AMP) to a final concentration of 5 mM. Plates were incubated at 37 °C for 20 min with orbital shaking (90 rpm). After 20 min, the uptake was quenched by adding 150 μL of ice-cold wash buffer (40 mM MOPS-Tris, pH 7.0 + 70 mM KCl) to each well, and the mixture was transferred to a 96-well filtration plate. Vacuum was applied, and the vesicles were washed three times with wash buffer. Vesicles were then lysed with 100 µL of MicroScint-20."}, "P-gp (human MDR1)": {"biological_target": "P-gp (human MDR1) (Homo sapiens, UniProt P08183)", "sequence (P08183 whole entry)": "as above", "test": "Transwell transport assay, basal-to-apical digoxin flux in MDCK-hMDR1-cMDR1-KO cells", "settings": "3H-digoxin 2.5 µM, 4 h", "experimental": "The transport assay was performed using MDCK-hMDR1-cMDR1-KO, MDCK-cMDR1-KO, and MDCK-hBCRP-cMDR1-KO as reported previously with minor modifications. In brief, 133,000 cells were seeded onto a Transwell membrane insert, a semipermeable polyethylene terephthalate membrane. During the differentiation process, the medium volume in the apical chamber was kept at 300 μL, while the basal chamber contained 1000 μL. The cells were allowed to differentiate for 7–9 days at 37 °C in a humidified incubator with 5% CO2. Before starting transporter assays, the integrity of the cell monolayer was checked using lucifer yellow permeability assays. […] From the basal chamber, 100 μL samples were collected for fluorescence measurements using GloMax® Explorer with a 475 nm excitation filter and a 500–550 nm emission filter to calculate the percent permeability per well.\nTo assess the flux of digoxin or prazosin from the basal to apical side, the cells were washed twice with HBSS. […] All apical and basal samples were mixed with scintillation fluid (EcoLite(+)™ liquid scintillation cocktail), and their radioactivity was measured using liquid scintillation counting (Beckman LS6500). […] For data analysis, the disintegration per minute counts of digoxin or prazosin from the apical samples were converted to picomoles using radioactivity measured in the substrate solution."}, "[1]": {"test": "Estimation of intestinal luminal concentration (Igut), dose/250 mL", "settings": "estimated from maximum oral amount (AP 10 mg, BHA 8 mg) in 250 mL intestinal fluid", "experimental": "Igut is intestinal luminal concentration estimated as dose/250 mL. The Igut concentration was estimated using the following equation: Igut=A÷MW×V×10^6 where Igut is the estimated intestinal luminal concentration (µM), A is the amount of antioxidant in an oral dosage (mg), MW is the molecular weight, and V is the volume of intestinal fluid, i.e., 250 mL."}, "[2]": {"settings": "Table S1; source not stated; cited from earlier work"}, "OATP2B1": {"biological_target": "T2, OATP2B1 (Homo sapiens, UniProt O94956)", "T2 sequence (O94956 1-709)": "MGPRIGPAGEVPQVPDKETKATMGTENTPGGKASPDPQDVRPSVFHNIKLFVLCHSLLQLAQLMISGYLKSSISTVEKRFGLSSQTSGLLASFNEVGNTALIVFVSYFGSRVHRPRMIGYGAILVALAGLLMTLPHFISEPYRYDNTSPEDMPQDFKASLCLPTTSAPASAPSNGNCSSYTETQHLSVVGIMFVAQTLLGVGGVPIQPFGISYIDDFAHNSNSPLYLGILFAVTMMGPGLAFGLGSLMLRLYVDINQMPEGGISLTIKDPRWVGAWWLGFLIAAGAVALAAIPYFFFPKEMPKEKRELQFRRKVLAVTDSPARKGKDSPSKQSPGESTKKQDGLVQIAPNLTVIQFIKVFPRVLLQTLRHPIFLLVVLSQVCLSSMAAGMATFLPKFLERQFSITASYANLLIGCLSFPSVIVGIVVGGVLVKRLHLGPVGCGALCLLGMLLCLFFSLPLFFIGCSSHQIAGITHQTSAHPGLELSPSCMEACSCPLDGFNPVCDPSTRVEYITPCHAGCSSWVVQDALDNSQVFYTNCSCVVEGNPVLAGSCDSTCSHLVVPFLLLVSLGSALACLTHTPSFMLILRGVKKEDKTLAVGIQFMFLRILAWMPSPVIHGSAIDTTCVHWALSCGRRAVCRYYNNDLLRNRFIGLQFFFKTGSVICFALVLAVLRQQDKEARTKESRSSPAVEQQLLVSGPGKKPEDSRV", "test": "Uptake transporter assay, 3H-estrone sulfate uptake in HEK-293-OATP2B1 cells", "settings": "for IC50: mean ± SD of three independent experiments", "quoted_text": "The uptake transporter assay was performed as reported previously with minor modifications [15]. A day before the uptake assay, Isoplate 96-well plates were coated with poly-D-lysine in PBS with calcium and magnesium and washed with PBS. […] An assay mixture of ^3H-estrone sulfate, a known inhibitor of OATP2B1, or an antioxidant was prepared and incubated in a 37 °C incubator for 10 min. The cells were washed with ice-cold HBSS three times and incubated with MicroScint fluid on a shaker for 1 h for cell lysis. Radioactivity was measured by liquid scintillation counting with a MicroBeta^2® microplate counter. […] On the day of experiment, cells were washed twice with 0.4 mL of HBSS per well and then pre-incubated for 10–20 min in 0.4 mL of HBSS. […] Uptake of ^3H-valsartan was stopped after 15 min by washing three times with ice-cold HBSS. Cells were lysed in 750 µL of lysis buffer (0.1 N NaOH and 0.1% SDS in double-distilled water) per well while shaking for 60 min. A total of 690 µL of the lysate from each well was then added to 2.5 mL of EcoLite scintillation fluid. The radioactivity was determined on a LS6500 Scintillation Counter (Beckman Coulter). Protein concentration was measured with a Pierce™ BCA protein assay kit. The radioactivity in each well was corrected for protein concentration. All values were determined in triplicate, and the final values are expressed as % uptake relative to negative control (1% DMSO).\nAntioxidants were screened at a concentration of 200 μM."}}, "note": "Entries after “also recorded” stand apart in the source; their conditions may differ. Like-named read-outs stand apart in the source and are kept apart here."}
{"smiles": "COc1ccc(O)cc1C(C)(C)C", "note": "[Butylated hydroxyanisole (BHA), 2-tert-Butyl-4-hydroxyanisole]", "values": [{"measurement": "Inhibition of P-gp", "setting": "P-gp; 200 µM, 3H-NMQ", "value": "at least 50%"}, {"measurement": "% Uptake of 3H-NMQ P-gp", "setting": "P-gp; antioxidant 200 µM, uptake with DMSO set as 100%, mean ± SD, three replicates, membrane vesicles", "value": "42.1 ± 5.7", "unit": "%"}, {"measurement": "IC50", "setting": "P-gp; substrate 3H-NMQ, mean ± SD of three independent experiments", "value": "182 ± 49", "unit": "µM"}, {"measurement": "Inhibition of digoxin transport (basal to apical)", "setting": "P-gp (human MDR1); BHA 62.5 µM on both sides", "value": "Neither the estimated maximal intestinal concentration of 178 µM nor a lower concentration (62.5 µM) inhibited digoxin transport"}, {"measurement": "Inhibition of digoxin transport (basal to apical)", "setting": "P-gp (human MDR1); BHA 178 µM on both sides", "value": "Neither the estimated maximal intestinal concentration of 178 µM nor a lower concentration (62.5 µM) inhibited digoxin transport; also recorded: did not impede digoxin transport"}, {"measurement": "Max Intestinal Conc (µM) in 250 mL Fluid", "setting": "[1]", "value": 178, "unit": "µM"}, {"measurement": "LogP", "setting": "[2]", "value": 3.2}, {"measurement": "Inhibition of OATP2B1", "setting": "OATP2B1; 200 µM, 3H-estrone sulfate", "value": "at least 50%"}, {"measurement": "Effect of 30 min pre-incubation on inhibition potency", "setting": "OATP2B1; OATP2B1-expressing cells pre-incubated for 30 min", "value": "did not further affect their inhibition potency"}, {"measurement": "% Uptake of 3H-ES OATP2B1", "setting": "OATP2B1; antioxidant 200 µM, uptake with DMSO set as 100%, mean ± SD, three replicates, HEK-293-OATP2B1 cells", "value": "19.8 ± 7.1", "unit": "%"}, {"measurement": "IC50", "setting": "OATP2B1; read-out: IC50 OATP2B1, substrate 3H-estrone sulfate", "value": "71 ± 20", "unit": "µM"}, {"measurement": "IC50", "setting": "OATP2B1; read-out: IC50 with preincubation, OATP2B1 expressing cells pre-incubated 30 minutes", "value": "67 ± 12.8", "unit": "µM"}, {"measurement": "IC50", "setting": "OATP2B1; read-out: IC50 without preincubation, OATP2B1 expressing cells", "value": "76.9 ± 15.9", "unit": "µM"}]}
